Laboratory results taken from article PMC10786919, “Design-rules for stapled peptides with in vivo activity and their application to Mdm2/X antagonists” (Nature Communications, 2024).
≈ marks a conversion by molar mass, not a printed value. Where “and” joins values, the source holds several entries; their conditions need not be identical. Identical values can stand only once. Like-named read-outs stand apart in the source and are kept apart here. Positions of bridges follow the written chain, without caps; N, C: chain ends. Non-standard residues stand in square brackets, D forms with d. Residues, ends and D or L forms follow the SMILES beside them. dPhe(4-CF3) = N[C@H](Cc1ccc(C(F)(F)F)cc1)C(=O)O; dTrp(6-F) = N[C@H](Cc1c[nH]c2cc(F)ccc12)C(=O)O; Lys(N3) = [N-]=[N+]=NCCCC[C@H](N)C(=O)O; R8 = C=CCCCCCC[C@@](C)(N)C(=O)O; Cba = N[C@@H](CC1CCC1)C(=O)O; R5 = C=CCCC[C@@](C)(N)C(=O)O; S5 = C=CCCC[C@](C)(N)C(=O)O; βAla = NCCC(=O)O

Legend:
[1] = test system: Jump-In T-REx CHO-K1 BLA cells; assay: cells; format: cell-based
[2] = test system: p53 responsive β-lactamase reporter in HCT116 cells; assay: cells; format: cell-based
In short: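 Read-out used the ToxBLAzer Dual Screen for β-lactamase driven by a stably integrated p53-responsive reporter. Assay: 8000 HCT116 cells per well at 0.5% final DMSO. Reported numbers are geometric means over a minimum of three biological replicates.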

[3] = Experimental LogD (partition coefficient); conditions: for logD: not stated, Partition Coeff LogD
[4] = Lactate dehydrogenase (LDH) release assay; format: cell-based
In short: (§1)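 Membrane damage measured as lactate dehydrogenase release (CytoTox-ONE kit) from p53-responsive β-lactamase reporter HCT116 cells plated at 8000 per well. Final DMSO 0.5%; geometric mean reported from a minimum of three biological replicates.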

[5] = Solubility assay (kinetic solubility, PBS pH 7); format: physicochemical; conditions: for solubility kinetic: pH 7, aqueous buffer, kinetic from dmso stock, read-out: Solubility
In short: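 Next, measure peak areas of sample and standard. Finally, multiply their ratio by the standard concentration to obtain solubility (µM).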

physchem [6] = assay: physchem
HCT116 cells = assay: Lactate dehydrogenase (LDH) release assay; format: cell-based
In short: as §1

physchem [7] = assay: physchem; remark: listed apart in the source
physchem [8] = assay: physchem; remark: listed apart in the source
[9] = 0% FBS 4Hr, read-out: TETCHO: Counterscreen EC50
[10] = 0% FBS 4Hr, read-out: p53 reporter assay EC50
[11] = 0% FBS 16Hr, read-out: p53 reporter assay EC50
[12] = 10% FBS 4Hr, read-out: p53 reporter assay EC50
[13] = 10% FBS 16Hr, read-out: TETCHO: Counterscreen EC50
[14] = 4 hours, 0% serum, read-out: TETCHO Counterscreen EC50
[15] = 10% FBS 16Hr, read-out: p53 reporter assay EC50
[16] = read-out: Cell EC50 (4 hr, 0% FBS), p53 reporter assay, 4 hr, 0% FBS
[17] = read-out: Cell EC50 (16 hr, 10% FBS), p53 reporter assay, 16 hr, 10% FBS
[18] = 0% FBS 4Hr, read-out: LDH: Cytotoxicity assay EC50
[19] = 10% FBS 16Hr, read-out: LDH: Cytotoxicity assay EC50
[20] = 4 hours, 0% serum, read-out: LDH Cytotoxicity assay EC50
[21] = 0% FBS 4Hr, read-out: p53 reporter assay: EC50
[22] = 0% FBS 4Hr, read-out: LDH: Cytotoxicity assay: EC50

SMILES	TETCHO: Counterscreen % Effect ([1]; 0% FBS 4Hr)	EC50 [1, 9]	EC50 [2, 10]	logD [3]	EC50 ([4]; LDH: Cytotoxicity assay EC50)	solubility kinetic ([5]; pH 7, PBS)	TETCHO: Counterscreen % Effect ([1]; 10% FBS 16Hr)	EC50 [1, 13]	p53 reporter assay % Effect ([2]; 0% FBS 4Hr)	p53 reporter assay % Effect ([2]; 10% FBS 16Hr)	EC50 [2, 15]	EC50 [2, 16]	EC50 [2, 17]	further results
CC(=O)N[C@@H](CC(C)C)C(=O)N[C@H](C(=O)N[C@@H](Cc1ccccc1)C(=O)N[C@]1(C)CCCCCCC=CCCC[C@@](C)(C(=O)N[C@@H](CO)C(=O)N[C@@H](C)C(=O)N[C@@H](C)C(N)=O)NC(=O)[C@@H](CC2CCC2)NC(=O)[C@H](CC(C)C)NC(=O)[C@H](CCC(N)=O)NC(=O)[C@H](Cc2c[nH]c3ccccc23)NC(=O)[C@H](Cc2ccc(O)cc2)NC(=O)[C@H](CCC(=O)O)NC1=O)[C@@H](C)O [MP-009]	4.797%	> 50.6 µM	8.27 µM	2.7	> 50.7 µM	79.3 µM (≈ 142 µg/mL)	–	–	–	–	–	–	–	TETCHO: Counterscreen % Effect ([1]; 0% FBS 16Hr): -1.31%; EC50 [2, 11]: 29.5 µM; EC50 [2, 12]: > 50.6 µM; EPSA (physchem [6]): 204 A^2
CC(=O)N[C@@H](C(=O)N[C@H](C)C(=O)N[C@H](Cc1c[nH]c2cc(F)ccc12)C(=O)N[C@H](Cc1ccc(O)cc1)C(=O)N[C@H](C)C(=O)N[C@]1(C)CCCC=CCCC[C@](C)(C(=O)N[C@H](CC(C)C)C(=O)N[C@H](CO)C(=O)N[C@H](C)C(=O)N[C@H](C)C(=O)N[C@H](C)C(=O)N[C@H](C)C(=O)N[C@H](C)C(=O)N[C@H](C)C(N)=O)NC(=O)[C@@H](CCC(N)=O)NC(=O)[C@@H](CCC(=O)O)NC(=O)[C@@H](Cc2ccc(C(F)(F)F)cc2)NC1=O)[C@H](C)O [MP-042] (Ac-[dT][dA][dTrp(6-F)][dY][dA][R5][dPhe(4-CF3)][dE][dQ][R5][dL][dS][dA][dA][dA][dA][dA][dA]-NH2; staple 6-10)	12.4%	> 50.4 µM	0.612 µM	–	–	–	2.411%	> 50.4 µM	91.28%	98.03%	0.284 µM	0.6 µM	0.28 µM and 0.3 µM	EC50 [1, 14]: > 50 µM; overall improvement of cellular activity compared to initial parent peptide (MP-769) ([2]; 10% serum, 16-hour): > 178 fold; LDH: Cytotoxicity assay % Effect (HCT116 cells; 0% FBS 4Hr): 8.154%; LDH: Cytotoxicity assay % Effect (HCT116 cells; 10% FBS 16Hr): 15.87%; EC50 [4, 18]: > 50.7 µM; EC50 [4, 19]: > 50.7 µM; EC50 [4, 20]: > 50 µM
CC(=O)N[C@@H](CCCCN=[N+]=[N-])C(=O)NCCC(=O)N[C@@H](CC(C)C)C(=O)N[C@H](C(=O)N[C@@H](Cc1ccccc1)C(=O)N[C@]1(C)CCCCCCC=CCCC[C@@](C)(C(=O)N[C@@H](CO)C(=O)N[C@@H](C)C(=O)N[C@@H](C)C(N)=O)NC(=O)[C@H](CC2CCC2)NC(=O)[C@H](CCC(N)=O)NC(=O)[C@H](C)NC(=O)[C@H](Cc2c[nH]c3ccccc23)NC(=O)[C@H](Cc2ccc(O)cc2)NC(=O)[C@H](Cc2c[nH]c3ccccc23)NC1=O)[C@@H](C)O [MP-185] (Ac-[Lys(N3)][βAla]LTF[R8]WYWAQ[Cba][S5]SAA-NH2; staple 6-13)	4.64%	> 50 µM	0.137 µM	4	> 50 µM	2 µM (≈ 4.05 µg/mL)	–	–	–	–	–	–	–	TETCHO: Counterscreen % Effect ([1]; 0% FBS 16Hr): 9.8%; EC50 [2, 11]: 0.214 µM; p53 reporter assay % Effect ([2]; 10% FBS 4Hr): 14.92%; EC50 [2, 12]: 1.86 µM; EPSA (physchem [6]): 226 A^2
CC(=O)N[C@@H](C(=O)N[C@H](C)C(=O)N[C@H](Cc1c[nH]c2cc(F)ccc12)C(=O)N[C@H](Cc1ccc(O)cc1)C(=O)N[C@H](C)C(=O)N[C@]1(C)CCCC=CCCC[C@](C)(C(=O)N[C@H](CC(C)C)C(=O)N[C@H](CO)C(=O)N[C@H](C)C(=O)N[C@H](C)C(=O)N[C@H](C)C(N)=O)NC(=O)[C@@H](CCC(N)=O)NC(=O)[C@@H](CCC(=O)O)NC(=O)[C@@H](Cc2ccc(C(F)(F)F)cc2)NC1=O)[C@H](C)O [MP-0230] (Ac-[dT][dA][dTrp(6-F)][dY][dA][R5][dPhe(4-CF3)][dE][dQ][R5][dL][dS][dA][dA][dA]-NH2; staple 6-10)	12.86%	> 50.4 µM	1.44 µM	–	> 50.7 µM	140 µM (≈ 253 µg/mL)	-3.99%	> 50.4 µM	96.81%	84.65%	4.34 µM	–	–	EPSA (physchem [7]): 190 A^2
CC(=O)N[C@@H](CCCCN=[N+]=[N-])C(=O)NCCC(=O)N[C@@H](CC(N)=O)C(=O)N[C@H](C(=O)N[C@@H](Cc1ccccc1)C(=O)N[C@]1(C)CCCCCCC=CCCC[C@@](C)(C(=O)N[C@@H](CC(N)=O)C(=O)N[C@@H](CC(N)=O)C(=O)N[C@@H](CC(N)=O)C(N)=O)NC(=O)[C@H](CC2CCC2)NC(=O)[C@H](CCC(N)=O)NC(=O)[C@H](CC(N)=O)NC(=O)[C@H](Cc2c[nH]c3ccccc23)NC(=O)[C@H](Cc2ccc(O)cc2)NC(=O)[C@H](CC(N)=O)NC1=O)[C@@H](C)O [MP-359, azide-ATSP-7041 (L1N, E5N, A8N, S12N, A13N, A14N)] (Ac-[Lys(N3)][βAla]NTF[R8]NYWNQ[Cba][S5]NNN-NH2; staple 6-13)	8.184%	> 50.6 µM	–	2.12	–	53.7 µM (≈ 113 µg/mL)	–	–	–	–	–	–	–	EC50 [2, 21]: 32.2 µM; LDH: Cytotoxicity assay: % Effect (HCT116 cells; 0% FBS 4Hr): -2.842%; EC50 [4, 22]: > 50.6 µM; EPSA (physchem [8]): 238 A^2
CC(=O)N[C@@H](C(=O)N[C@H](C)C(=O)N[C@H](Cc1c[nH]c2cc(F)ccc12)C(=O)N[C@H](Cc1ccc(O)cc1)C(=O)N[C@H](C)C(=O)N[C@]1(C)CCCC=CCCC[C@](C)(C(=O)N[C@H](CC(C)C)C(=O)N[C@H](CO)C(N)=O)NC(=O)[C@@H](CCC(N)=O)NC(=O)[C@@H](CCC(=O)O)NC(=O)[C@@H](Cc2ccc(C(F)(F)F)cc2)NC1=O)[C@H](C)O [MP-797] (Ac-[dT][dA][dTrp(6-F)][dY][dA][R5][dPhe(4-CF3)][dE][dQ][R5][dL][dS]-NH2; staple 6-10)	17.03%	> 50.4 µM	3.61 µM	–	–	–	-11.41%	> 50.4 µM	74.63%	8.593%	> 50.4 µM	3.6 µM	> 50 µM	EC50 [1, 14]: > 50 µM; improvement of cellular activity vs MP-769 ([2]; 0% serum, 4-hour assay): 3 fold; LDH: Cytotoxicity assay % Effect (HCT116 cells; 0% FBS 4Hr): 33.6%; LDH: Cytotoxicity assay % Effect (HCT116 cells; 10% FBS 16Hr): 29.91%; EC50 [4, 18]: > 50.7 µM; EC50 [4, 19]: > 50.7 µM; EC50 [4, 20]: > 50 µM; EPSA (physchem [7]): 198 A^2
CC(=O)N[C@@H](CCCCN=[N+]=[N-])C(=O)NCCC(=O)N[C@@H](CC(C)C)C(=O)N[C@H](C(=O)N[C@@H](Cc1ccccc1)C(=O)N[C@]1(C)CCCCCCC=CCCC[C@@](C)(C(=O)N2CCC[C@@H]2C(=O)N2CCC[C@@H]2C(=O)N2CCC[C@@H]2C(=O)N2CCC[C@@H]2C(=O)N2CCC[C@@H]2C(=O)N2CCC[C@@H]2C(N)=O)NC(=O)[C@H](CC2CCC2)NC(=O)[C@H](CCC(N)=O)NC(=O)[C@H](C)NC(=O)[C@H](Cc2c[nH]c3ccccc23)NC(=O)[C@H](Cc2ccc(O)cc2)NC(=O)[C@H](CCC(=O)O)NC1=O)[C@@H](C)O [MP-896]	-4.745%	> 50.4 µM	–	–	–	–	-12.59%	> 50.4 µM	–	–	–	> 50 µM	> 50 µM	p53 reporter assay: % Effect ([2]; 0% FBS 4Hr): 28.91%; EC50 [2, 21]: > 50.4 µM; p53 reporter assay: % Effect ([2]; 10% FBS 16Hr): 32.76%; EC50 ([2]; 10% FBS 16Hr, read-out: p53 reporter assay: EC50): > 50.4 µM; Partition Coeff LogD [3]: Poorly Behaved; LDH: Cytotoxicity assay: % Effect (HCT116 cells; 0% FBS 4Hr): -5.717%; LDH: Cytotoxicity assay: % Effect (HCT116 cells; 10% FBS 16Hr): 1.172%; EC50 [4, 22]: > 50.7 µM; EC50 ([4]; 10% FBS 16Hr, read-out: LDH: Cytotoxicity assay: EC50): > 50.7 µM; Solubility [5]: P.B.; Solubility ([5]; pH 7, PBS): Poorly Behaved
